Tested on: 253994-281-T-J1-PDC KRAS-mutant spheroids with HUVEC/MSC, viability
Test: Anticancer human tumor 253994-281-T-J1-PDC patient-derived colorectal carcinoma cell line growth inhibition [KRAS2]
Settings: for IC50: curve of first compound; for viability, T/C: stronger effect = lower value
In short: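 Combination screen of spheroid viability in tumor-cell co-cultures with endothelial (HUVEC) and mesenchymal stem cell stroma. Each agent was tested in half-log dilutions, topping at clinical Cmax or at 10 microM without a known Cmax.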

[1] = second compound 0.1 µM, first compound 0.0316 µM
[2] = second compound 0.1 µM, first compound 0.1 µM
[3] = second compound 0.1 µM, first compound 0.316 µM
[4] = second compound 0.1 µM, first compound 1 µM
[5] = second compound 0.1 µM, first compound 3.16 µM
[6] = second compound 0.1 µM, first compound 10 µM
[7] = second compound 0.316 µM, first compound 0.0316 µM
[8] = second compound 0.316 µM, first compound 0.1 µM
[9] = second compound 0.316 µM, first compound 0.316 µM
[10] = second compound 0.316 µM, first compound 1 µM
[11] = second compound 0.316 µM, first compound 3.16 µM
[12] = second compound 0.316 µM, first compound 10 µM
[13] = second compound 1 µM, first compound 0.0316 µM
[14] = second compound 1 µM, first compound 0.1 µM
[15] = second compound 1 µM, first compound 0.316 µM
[16] = second compound 1 µM, first compound 1 µM
[17] = second compound 1 µM, first compound 3.16 µM
[18] = second compound 1 µM, first compound 10 µM
[19] = second compound 3.16 µM, first compound 0.0316 µM
[20] = second compound 3.16 µM, first compound 0.1 µM
[21] = second compound 3.16 µM, first compound 0.316 µM
[22] = second compound 3.16 µM, first compound 1 µM
[23] = second compound 3.16 µM, first compound 3.16 µM
[24] = second compound 3.16 µM, first compound 10 µM
[25] = second compound 10 µM, first compound 0.0316 µM
[26] = second compound 10 µM, first compound 0.1 µM
[27] = second compound 10 µM, first compound 0.316 µM
[28] = second compound 10 µM, first compound 1 µM
[29] = second compound 10 µM, first compound 3.16 µM
[30] = second compound 10 µM, first compound 10 µM
[31] = second compound 0.1 µM, first compound 0.01 µM
[32] = second compound 0.316 µM, first compound 0.01 µM
[33] = second compound 1 µM, first compound 0.01 µM
[34] = second compound 3.16 µM, first compound 0.01 µM
[35] = second compound 10 µM, first compound 0.01 µM
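Also: spheroids exposed to agents for seven days before readout.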
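For viability, T/C in this document: percent of DMSO vehicle control viability.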

## CC(C)NCC(C(=O)N1CCN(c2ncnc3c2C(C)CC3O)CC1)c1ccc(Cl)cc1 (stereo not given) + CC1OCC2(CCN(c3cnc(Sc4ccnc(N)c4Cl)c(N)n3)CC2)C1N
Second compound 0.1 µM
  IC50: > 10 µM
Second compound 0.316 µM
  IC50: > 10 µM
Second compound 1 µM
  IC50: > 10 µM
Second compound 3.16 µM
  IC50: > 10 µM
Second compound 10 µM
  IC50: < 0.0316 µM
[1]
  viability, T/C: 107%
[2]
  viability, T/C: 101%
[3]
  viability, T/C: 99.8%
[4]
  viability, T/C: 90.7%
[5]
  viability, T/C: 85.2%
[6]
  viability, T/C: 85.8%
[7]
  viability, T/C: 95.1%
[8]
  viability, T/C: 91%
[9]
  viability, T/C: 86.4%
[10]
  viability, T/C: 84.7%
[11]
  viability, T/C: 101%
[12]
  viability, T/C: 84.3%
[13]
  viability, T/C: 84.7%
[14]
  viability, T/C: 77.9%
[15]
  viability, T/C: 72.9%
[16]
  viability, T/C: 83.5%
[17]
  viability, T/C: 83%
[18]
  viability, T/C: 93%
[19]
  viability, T/C: 57.8%
[20]
  viability, T/C: 59.5%
[21]
  viability, T/C: 63.9%
[22]
  viability, T/C: 70.6%
[23]
  viability, T/C: 77.7%
[24]
  viability, T/C: 84.3%
[25]
  viability, T/C: 36.3%
[26]
  viability, T/C: 41%
[27]
  viability, T/C: 41.1%
[28]
  viability, T/C: 51.9%
[29]
  viability, T/C: 58%
[30]
  viability, T/C: 55%

## CC1COCCN1c1cc(-c2ccnn2C)c2ccnc(-c3ccn[nH]3)c2n1 (stereo not given) + C=CC(=O)N1CCN(c2nc(=O)n(-c3c(C)ccnc3C(C)C)c3nc(-c4c(O)cccc4F)c(F)cc23)C(C)C1
Second compound 0.1 µM
  IC50: > 3.16 µM
Second compound 0.316 µM
  IC50: > 3.16 µM
Second compound 1 µM
  IC50: > 3.16 µM
Second compound 3.16 µM
  IC50: > 3.16 µM
Second compound 10 µM
  IC50: > 3.16 µM
[31]
  viability, T/C: 97.5%
[1]
  viability, T/C: 93.9%
[2]
  viability, T/C: 76.9%
[3]
  viability, T/C: 55.7%
[4]
  viability, T/C: 50.6%
[5]
  viability, T/C: 56.5%
[32]
  viability, T/C: 105%
[7]
  viability, T/C: 90%
[8]
  viability, T/C: 76.6%
[9]
  viability, T/C: 51.7%
[10]
  viability, T/C: 60.8%
[11]
  viability, T/C: 57.4%
[33]
  viability, T/C: 105%
[13]
  viability, T/C: 89%
[14]
  viability, T/C: 72.7%
[15]
  viability, T/C: 61.9%
[16]
  viability, T/C: 59.6%
[17]
  viability, T/C: 57.2%
[34]
  viability, T/C: 100%
[19]
  viability, T/C: 99.6%
[20]
  viability, T/C: 73.2%
[21]
  viability, T/C: 51.7%
[22]
  viability, T/C: 51.4%
[23]
  viability, T/C: 58.9%
[35]
  viability, T/C: 94.9%
[25]
  viability, T/C: 111%
[26]
  viability, T/C: 75.2%
[27]
  viability, T/C: 56.4%
[28]
  viability, T/C: 55.3%
[29]
  viability, T/C: 62%

## COC(=O)c1ccc2c(C(=Nc3ccc(N(C)C(=O)CN4CCN(C)CC4)cc3)c3ccccc3)c(O)[nH]c2c1 + CNCc1ccccc1-c1csc(C(C)Nc2nc(C)nc3cc(OC)c(OC)cc23)c1
Second compound 0.1 µM
  IC50: 6.67 µM
Second compound 0.316 µM
  IC50: 4.12 µM
Second compound 1 µM
  IC50: 4.52 µM
Second compound 3.16 µM
  IC50: < 0.0316 µM
Second compound 10 µM
  IC50: < 0.0316 µM
[1]
  viability, T/C: 90.3%
[2]
  viability, T/C: 97.4%
[3]
  viability, T/C: 73.2%
[4]
  viability, T/C: 89.3%
[5]
  viability, T/C: 77%
[6]
  viability, T/C: 35.2%
[7]
  viability, T/C: 99.1%
[8]
  viability, T/C: 74.1%
[9]
  viability, T/C: 80.8%
[10]
  viability, T/C: 83.8%
[11]
  viability, T/C: 61.7%
[12]
  viability, T/C: 10.7%
[13]
  viability, T/C: 82.6%
[14]
  viability, T/C: 75%
[15]
  viability, T/C: 77.3%
[16]
  viability, T/C: 70.8%
[17]
  viability, T/C: 72.3%
[18]
  viability, T/C: 0.33%
[19]
  viability, T/C: 20.7%
[20]
  viability, T/C: 23.6%
[21]
  viability, T/C: 3.7%
[22]
  viability, T/C: 1.12%
[23]
  viability, T/C: 0.36%
[24]
  viability, T/C: 0.17%
[25]
  viability, T/C: 0.14%
[26]
  viability, T/C: 0.16%
[27]
  viability, T/C: 0.15%
[28]
  viability, T/C: 0.22%
[29]
  viability, T/C: 0.12%
[30]
  viability, T/C: 0.17%

## CC(=O)Nc1cccc(-n2c(=O)n(C3CC3)c(=O)c3c(Nc4ccc(I)cc4F)n(C)c(=O)c(C)c32)c1 + COc1cc2nc(C)nc(NC(C)c3cc(N)cc(C(F)(F)F)c3)c2cc1OC1CCOC1
Second compound 0.1 µM
  IC50: 0.000473 µM
Second compound 0.316 µM
  IC50: 0.000318 µM
Second compound 1 µM
  IC50: 0.000331 µM
Second compound 3.16 µM
  IC50: 0.000154 µM
Second compound 10 µM
  IC50: 0.000173 µM
Second compound 0.1 µM, first compound 0.0001 µM
  viability, T/C: 82.8%
Second compound 0.1 µM, first compound 0.000316 µM
  viability, T/C: 60.4%
Second compound 0.1 µM, first compound 0.001 µM
  viability, T/C: 30.9%
Second compound 0.1 µM, first compound 0.00316 µM
  viability, T/C: 14.4%
[31]
  viability, T/C: 10.5%
[1]
  viability, T/C: 5.47%
Second compound 0.316 µM, first compound 0.0001 µM
  viability, T/C: 68%
Second compound 0.316 µM, first compound 0.000316 µM
  viability, T/C: 50.7%
Second compound 0.316 µM, first compound 0.001 µM
  viability, T/C: 27.9%
Second compound 0.316 µM, first compound 0.00316 µM
  viability, T/C: 14.8%
[32]
  viability, T/C: 10.7%
[7]
  viability, T/C: 5.1%
Second compound 1 µM, first compound 0.0001 µM
  viability, T/C: 59.9%
Second compound 1 µM, first compound 0.000316 µM
  viability, T/C: 51.7%
Second compound 1 µM, first compound 0.001 µM
  viability, T/C: 23.5%
Second compound 1 µM, first compound 0.00316 µM
  viability, T/C: 11.6%
[33]
  viability, T/C: 9.28%
[13]
  viability, T/C: 4.8%
Second compound 3.16 µM, first compound 0.0001 µM
  viability, T/C: 59.7%
Second compound 3.16 µM, first compound 0.000316 µM
  viability, T/C: 34%
Second compound 3.16 µM, first compound 0.001 µM
  viability, T/C: 20.2%
Second compound 3.16 µM, first compound 0.00316 µM
  viability, T/C: 10.6%
[34]
  viability, T/C: 8.21%
[19]
  viability, T/C: 4.13%
Second compound 10 µM, first compound 0.0001 µM
  viability, T/C: 74.6%
Second compound 10 µM, first compound 0.000316 µM
  viability, T/C: 21.5%
Second compound 10 µM, first compound 0.001 µM
  viability, T/C: 13.6%
Second compound 10 µM, first compound 0.00316 µM
  viability, T/C: 8.98%
[35]
  viability, T/C: 5.81%
[25]
  viability, T/C: 2.33%
